US5912266A, “Beta2 integrin cell adhesion molecule inhibitors” (American Home Products Corporation, priority 1997, dated 1999)
Values joined by “and” are separate entries in the source; they are usually repeats but may differ in a detail not shown here. Equal values may be shown once. Read-outs that look alike come from different tables or passages of the source.

What was measured:
Type in all cases: cell-based, human
U937 cells = experiment: MTT cytotoxicity assay, U937 cells; details: for Average Optical Density / Optical Density: U937, 30 min.; for Optical Density: single well, 580 nm
Excerpt: (§1) This experiment describes the affect of asperlin on cellular respiration (mitochondrial activity) by measuring the reduction of the tetrazolium salt MTT to formazan crystals (Moseman, et al). This assay served as a control to ensure that the decrease in the fluorescence observed in Example I, Table I, was not the result of the fluorescent dye leaking from the cells due to disruption of the cell membrane. To address this issue, the mitochondrial activity of β2 and β1 integrin expressing cells in the presence of asperlin was quantitated using a commercially available MTT cytotoxicity kit (Promega No. G4100).
(§2) HL60 and U937 cells were purchased from the American Type Culture Collection (ATCC) and maintained in RPMI 1640 culture media containing 10% heat inactivated fetal bovine serum (refer to Example I, materials). HL60 cells were used between passages 20 and 30. HL60 cells were stimulated by a four day exposure to DMSO, as described in Example I, materials. Falcon round bottom tissue culture plates (No. 3077) were used for the experiment. All remaining reagents were supplied in Promega's MTT cytotoxicity kit (Catalog No. G4100).
(§3) The assay procedure described in the Promega MTT kit was used with the following changes.
(§4) Asperlin was solubilized in 100% DMSO at a concentration of 50 mg/ml. The 50 mg/ml asperlin stock was diluted to 400 μg/ml with culture media containing 5% fetal bovine serum (FBS). This solution was further diluted to 80 and 20 μg/ml with culture media supplemented with 5% FBS plus 2% DMSO. 50 μl of the 20 and 80 μg/ml asperlin solutions were added to wells of a sterile, round bottom 96 well assay plate. Control wells received 50 μl of culture media containing 5% FBS plus 2% DMSO. Duplicate assay wells were prepared such that U937 and HL60 cells could be evaluated on the same plate. The cell density of β1 integrin expressing U937, and β2 integrin expressing HL60 cell cultures were determined using a hemacytometer.
(§5) Cells were harvested by centrifuging for 5 minutes at 1000 rpm, room temperature, in a Sorvall RT600 bench-top centrifuge. The HL60 cell pellet was resuspended in fresh culture media at a concentration of 5×10^6 cells/ml. The U937 cell pellet was resuspended in fresh culture media at a concentration of 2.5×10^6 cells/ml. 2.5×10^5 β2 integrin expressing HL60 cells, contained in 50 μl, were added to wells of the assay plate using a multichannel pipettor. In duplicate assay wells, 1.25×10^5 β1 integrin expressing U937 cells, contained in 50 μl, were added to wells of the assay plate using a multichannel pipettor. Assay plates were incubated for either 30 minutes, 60 minutes, or 4 hours in a 37° C. 5% CO2, humidified incubator.
(§6) At the appropriate time point, 15 μl of MTT reagent, supplied in the Promega assay kit, was added to each well using a multichannel pipettor. Assay plates were incubated in the 37° C. incubator, as just described, for two hours. The MTT reduction reaction was quenched, and the visible formazan crystals were solubilized by adding exactly 100 μl of Promega's solubilization buffer to each well. Assay plates were incubated for at least 18 hours in the same 37° C. incubator just described to solubilize the formazan reagent. Assay plates were removed from the incubator and allowed to cool to room temperature. The optical density (OD) of each well of the assay plate was determined using a microtiter plate reader (Flow Labs) set at a wavelength of 580 nm with a correction wavelength of 630 nm.
(§7) Replicate sample ODs were average. The percentage of inhibition of cellular respiration (mitochondrial activity) by asperlin was quantitated by the following equation:
(§8) % Inhibition=(1-(Sample OD.div.Average Control OD))×100

[1] = MTT cytotoxicity assay, U937 cells; details: human, u937 cells, U937, 30 min., read-out: % Inhibition MTT Reduction
Excerpt: as §1, §2, §3, §4, §5, §6, §7, §8

LFA-1 = experiment: β2 integrin/ICAM-1 homotypic (cell:cell) binding of 8866 cells
Excerpt: The following experiment describes the inhibition of homotypic (cell:cell) binding of β2 and ICAM-1 expressing cells by asperlin. 8866 cells, a human B-cell line, were supplied by Athena Neurosciences (San Francisco, Calif.). These cells constitutively express both the β2 integrin referred to as LFA-1, and ICAM-1 on the cell surface. In culture, 8866 cells spontaneously bind, or clump together, as a result of β2 integrin binding to ICAM-1.
8866 cells were maintained in RPMI 1640 culture media (refer to Example I) supplemented with […] HEPES buffer (Gibco No. 15630-080). Cells were subcultured when the cell density was approximately 1×10^6 cells/ml. […]
8866 cells were harvested by centrifuging 5 minutes, at 1000 rpm, room temperature, in a Sorvall RT6000 centrifuge. The cell pellet was resuspended in culture media and cells were counted using a hemacytometer. […]
Asperlin was solubilized in 100% DMSO at a concentration of 20 mg/ml, 10 mg/ml, 5 mg/ml, and 2.5 mg/ml. […] The progression of homotypic binding was monitored by microscopic observations after 1 and 2 hours of incubation.
Inhibition β2 integrin dependent homotypic binding to ICAM-1 by asperlin was photographically recorded using a Nikon 35 mm camera attached to a Nikon Diaphot 300 inverted microscope (filter setting NCBII, objective 10×, and light setting of photo).

CC(=O)OC1C=CC(=O)OC1C1OC1C [Asperlin, 6,7-Anhydro-2,3,8-trideoxy-D-galacto-oct-2-enoic acidδ-lactone 4-acetate]
Average Optical Density (U937 cells; Asperlin 10 μg/mL): 1.532
Optical Density (U937 cells; Asperlin 10 μg/mL): 1.410 and 1.601 and 1.584
Average Optical Density (U937 cells; Asperlin 40 μg/mL): 1.386
Optical Density (U937 cells; Asperlin 40 μg/mL): 1.362 and 1.352 and 1.391
Cytotoxicity (in words) (U937 cells; β1 integrin expressing U937 cells): not cytotoxic
cytotoxicity at 0.5 h ([1]; Asperlin 10 μg/mL): 0%
cytotoxicity at 0.5 h ([1]; Asperlin 40 μg/mL): 11%
Inhibition of 8866 cell homotypic binding, visual inspection (in words) (LFA-1; after 1 hour of incubation): inhibit cell--cell binding in a dose dependent manner
Inhibition of 8866 cell homotypic binding, visual inspection (in words) (LFA-1; after 2 hours of incubation): inhibited 8866, β2 integrin mediated homotypic binding to ICAM-1 in a dose dependent manner
